From patent US11850257B2, “Method for enhancing beta-adrenergic response” (Saganatura EHF., priority 2019, dated 2023)

Experiments:
[1] = test system: β-adrenergic receptors in porcine detrusors; test: Contraction of potassium-contracted pig detrusor muscle strips in organ baths, relaxation by adrenaline and desensitization
From the text: Bladders were obtained from freshly slaughtered pigs and placed in cold Krebs solution (composition, mM: sodium chloride 119, potassium chloride 4.6, sodium bicarbonate 15, calcium chloride 1.5, magnesium chloride 1.2, sodium dihydrogen phosphate 1.2, glucose was 1.98 g/L) which had been gassed by 5% CO2 and put on ice. Subsequently four adjacent strips were cut from the detrusor (typically 2 mm wide and 20 mm long). In each case, four strips were cut, one of which served as a control. The tissues were mounted in a 100-mL organ bath containing sodium Krebs solution, which was maintained at 37° C. and continuously gassed with 95% O2 and 5% CO2. The strips were placed under a tension of ≈1 g and allowed to equilibrate for 60 minutes, during which the bath was changed three times. The muscle contraction was recorded by a transducer. The muscle strips were then contracted by addition of potassium up to 50 mM and allowed to equilibrate.
About 40 minutes after addition of potassium, cnidimoside A was given to the organ baths. Cnidimoside A was isolated from Angelica archangelica leaf by boiling the dried leaf in water, extracting the water phase by ethyl acetate and subjecting the resulting organic phase to silica acid chromatography column. Cnidimoside A is eluted by 10% methanol in chloroform after washing the column with ethyl acetate and chloroform. The cnidimoside A rich fractions were recrystallized in methanol.
The muscle strip in the fourth organ bath (D in FIG. 1) received the same amount of DMSO but no cnidimoside A. About 20 and 30 minutes later (see FIG. 1, times 9 and 10) adrenaline was added to all organ baths, resulting in 0.4 (time 9) and 1.2 μM (time 10) final concentration, respectively.
About 75 minutes after addition of potassium, cnidimoside A dissolved in DMSO was added to three organ baths (E-G, time-10 in FIG. 2), the fourth receiving the same amount of DMSO (bottom graph (H) in FIG. 2). Fifteen minutes after the addition of cnidimoside A, adrenaline was added to all baths, to a final concentration of 2 μM (time 11 in FIG. 2). In the absence of cnidimoside A the muscle strip relaxed for about 15 minutes, but then started contracting again, reaching the same level of contraction about 50 minutes after the addition of adrenaline.

mice [2] = details: 100 mg/kg daily, 30 days; cited from earlier work
mice [3] = test: Mouse toxicity experiment, Angelica archangelica water-extract mixed in food for 6 months; format: in vivo; details: daily consumption of cnidimoside A 3.35 mg/kg (calculated from extract content 0.15%)
Procedure: In a mouse experiment, we fed mice with about […] Angelica archangelica water-extract (mixed in food) daily for 6 months. Assuming the mice to be on average 23 g and cnidimoside A content in the extract to be 0.15%, this means that the daily consumption of cnidimoside A was 3.35 mg/kg.

Water solubility = format: physicochemical

C/C(=C/Cc1c(O)cc2oc(C)cc(=O)c2c1O)CO[C@@H]1O[C@H](CO)[C@@H](O)[C@H](O)[C@H]1O [cnidimoside A, 5,7-dihydroxy-2-methyl-6-[(Z)-3-methyl-4-[(2R,3R,4S,5S,6R)-3,4,5-trihydroxy-6-(hydroxymethyl)oxan-2-yl]oxybut-2-enyl]chromen-4-one]
Desensitization of the relaxation response to adrenaline ([1]; 13 μM cnidimoside A (bath C), adrenaline 0.4 and 1.2 μM, Experiment I): occurred slowly
Desensitization of the relaxation response to adrenaline ([1]; 38 μM cnidimoside A (bath B), adrenaline 0.4 and 1.2 μM, Experiment I): not observed at all
Desensitization of the relaxation response to adrenaline ([1]; 112 μM cnidimoside A (bath A), adrenaline 0.4 and 1.2 μM, Experiment I): not observed at all
Desensitization of the relaxation response to adrenaline ([1]; 200 μM cnidimoside A, adrenaline 2 μM, Experiment II): occurs much slower
Repression of desensitization across doses ([1]; 13, 38 and 112 μM cnidimoside A vs DMSO control, Experiment I): repressed dose-dependently
Effect on the weight of body, liver, spleen or thymus (mice [2]): without affecting
Toxic effect (mice [3]): No toxic effect
Water solubility (Water solubility): highly water soluble
